Experimental data: paper PMC9886550, “Molecular mechanism of topoisomerase poisoning by the peptide antibiotic albicidin” (Nature Catalysis, 2023)
Where “and” joins values, the source holds several entries; their conditions need not be identical. Equal entries are not always repeated.

Columns and labels:
Type in all cases: biochemical
E. coli gyrase GyrA^V70A = biological target: T1, E. coli gyrase GyrA^V70A (Escherichia coli, UniProt P0AES4+P0AES6, V70A); assay: DNA gyrase cleavage assay (CC50, % cleaved DNA); details: for % maximal cleavage: GyrAV70A, average of 3 independent assays; for EC50: GyrA^V70A; for % cleaved DNA Average: average of replicates
T1 construct: alternative cryo-EM approach involving full-length E. coli gyrase; 10-His (cleaved yes); Twin-Strep (cleaved yes); made in house
Method: (§1) For DNA gyrase supercoiling assays to characterize gyrase mutants, 15 µl reactions were set up containing 250 ng of relaxed DNA, E. coli gyrase supercoiling buffer (35 mM Tris–Cl pH 7.5, 24 mM KCl, 4 mM MgCl2, 2 mM DTT, 1.8 mM spermidine, 1 mM ATP, 6.0% (w/v) glycerol, and 0.1 mg ml^−1 BSA), gyrase subunits and inhibitors. Concentrations of enzyme and inhibitor are stated in the figure legends. Inhibitors were diluted in the following way to reduce the chance of precipitation: stock compound in 100% DMSO was diluted to 5 mM in 100% DMSO. This compound solution was diluted to 1 mM by stepwise addition of 1 µl of 50% DMSO with thorough mixing via pipetting after each addition. All subsequent dilutions up to 100 µM were performed in the same way using H2O. After this point, compounds were stable and could be diluted in the normal way. Reactions were incubated at 37 °C for 30 min before stopping with 15 µl chloroform:isoamyl alcohol (24:1 v/v) and 15 µl of STEB (40% (w/v) sucrose, 100 mM Tris–Cl pH 8, 10 mM EDTA, 0.5 mg ml^−1 bromophenol blue).
(§2) Cleavage assays were set up in the same way as supercoiling assays with some modifications. The concentration of enzyme was increased 4-fold relative to the supercoiling assay and reactions were incubated for 1 h before addition of 0.2% SDS and proteinase K (0.2 mg ml^−1) and further incubation at 37 °C for 30 min to trap cleavage complexes. Reactions were stopped in the same way as supercoiling assays.
(§3) Results were visualized by agarose gel electrophoresis: 1% agarose Tris-acetate-EDTA (TAE) gels were run without ethidium bromide (supercoiling) or with 10 µg ml^−1 ethidium bromide (cleavage) at 8 V cm^−1.
(§4) DNA cleavage gels were analysed using densitometry (ImageJ). Experiments were carried out in triplicate and expressed as mean ± s.d. Curves were fitted using OriginPro 2021 (Origin Lab) according to a modified Hill equation:1 y=cI+(cF−cI)[…]/(k^n+x^n) where y is the percentage of cleaved DNA, cI is the initial cleavage, cF is the final cleavage, k is the CC50 (the concentration of inhibitor that results in cleavage of 50% of DNA), n is a slope factor and x is the inhibitor concentration.

E. coli gyrase GyrA^S83L = biological target: T2, E. coli gyrase GyrA^S83L (Escherichia coli, UniProt P0AES4+P0AES6, S83L); assay: DNA gyrase cleavage assay (CC50, % cleaved DNA); details: for % maximal cleavage: GyrAS83L, average of 3 independent assays; for EC50: GyrA^S83L, mean ± s.d. of triplicate; for % cleaved DNA Average: average of replicates
T2 construct: alternative cryo-EM approach involving full-length E. coli gyrase; 10-His (cleaved yes); Twin-Strep (cleaved yes); made in house
Method: as §1, §2, §3, §4

[1] = biological target: T3, E. coli gyrase GyrB^K447W (Escherichia coli, UniProt P0AES4+P0AES6, K447W); assay: DNA gyrase cleavage assay (CC50, % cleaved DNA); details: for % maximal cleavage: GyrBK447W, average of 3 independent assays; for increase in CC50: 60 min; for EC50: GyrB^K447W, mean ± s.d. of triplicate
T3 construct: alternative cryo-EM approach involving full-length E. coli gyrase; 10-His (cleaved yes); Twin-Strep (cleaved yes); made in house
Method: as §1, §2, §3, §4

[2] = biological target: T4, E. coli gyrase GyrA^M120A (Escherichia coli, UniProt P0AES4+P0AES6, M120A); assay: DNA gyrase cleavage assay (CC50, % cleaved DNA); details: for % maximal cleavage: GyrAM120A, average of 3 independent assays; for EC50: GyrA^M120A, mean ± s.d. of triplicate; for % cleaved DNA Average: average of replicates
T4 construct: alternative cryo-EM approach involving full-length E. coli gyrase; 10-His (cleaved yes); Twin-Strep (cleaved yes); made in house
Method: as §1, §2, §3, §4

E. coli gyrase GyrA^A67Q = biological target: T5, E. coli gyrase GyrA^A67Q (Escherichia coli, UniProt P0AES4+P0AES6, A67Q); assay: DNA gyrase cleavage assay (CC50, % cleaved DNA); details: for % maximal cleavage: GyrAA67Q, average of 3 independent assays; for EC50: GyrA^A67Q, mean ± s.d. of triplicate; for % cleaved DNA Average: average of replicates
T5 construct: alternative cryo-EM approach involving full-length E. coli gyrase; 10-His (cleaved yes); Twin-Strep (cleaved yes); made in house
Method: as §1, §2, §3, §4

E. coli gyrase GyrA^D72N = biological target: T6, E. coli gyrase GyrA^D72N (Escherichia coli, UniProt P0AES4+P0AES6); details: in words
T6 construct: alternative cryo-EM approach involving full-length E. coli gyrase; 10-His (cleaved yes); Twin-Strep (cleaved yes); made in house
Method: as §1
as §2, with “Reactions were stopped in the same way as supercoiling assays.” left out

E. coli Topo IV = E. coli Topo IV (Escherichia coli, UniProt P0AFI2+P20083); assay: E. coli Topo IV relaxation assay; details: tested 0.1, 1, 10, 100 µM
Chain of E. coli Topo IV (P0AFI2 whole entry): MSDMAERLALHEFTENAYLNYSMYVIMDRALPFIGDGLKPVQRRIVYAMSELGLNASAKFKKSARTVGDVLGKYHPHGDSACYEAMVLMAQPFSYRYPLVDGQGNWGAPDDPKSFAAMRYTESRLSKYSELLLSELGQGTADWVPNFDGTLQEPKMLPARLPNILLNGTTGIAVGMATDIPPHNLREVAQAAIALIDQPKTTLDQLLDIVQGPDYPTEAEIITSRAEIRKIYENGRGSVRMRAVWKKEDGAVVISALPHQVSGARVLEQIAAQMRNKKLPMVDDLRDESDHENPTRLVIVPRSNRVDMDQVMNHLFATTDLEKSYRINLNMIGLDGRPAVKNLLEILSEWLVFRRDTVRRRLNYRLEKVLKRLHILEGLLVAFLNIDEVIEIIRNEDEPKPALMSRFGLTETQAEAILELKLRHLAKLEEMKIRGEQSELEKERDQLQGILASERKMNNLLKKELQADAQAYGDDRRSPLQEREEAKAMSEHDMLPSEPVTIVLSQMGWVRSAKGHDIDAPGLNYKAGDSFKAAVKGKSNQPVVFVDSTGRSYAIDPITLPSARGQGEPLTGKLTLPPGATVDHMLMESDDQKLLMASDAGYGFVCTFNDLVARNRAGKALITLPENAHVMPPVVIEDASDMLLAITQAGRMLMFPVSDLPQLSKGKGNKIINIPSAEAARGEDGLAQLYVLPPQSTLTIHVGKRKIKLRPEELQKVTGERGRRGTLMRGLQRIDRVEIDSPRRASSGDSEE
Chain of E. coli Topo IV (P20083 whole entry): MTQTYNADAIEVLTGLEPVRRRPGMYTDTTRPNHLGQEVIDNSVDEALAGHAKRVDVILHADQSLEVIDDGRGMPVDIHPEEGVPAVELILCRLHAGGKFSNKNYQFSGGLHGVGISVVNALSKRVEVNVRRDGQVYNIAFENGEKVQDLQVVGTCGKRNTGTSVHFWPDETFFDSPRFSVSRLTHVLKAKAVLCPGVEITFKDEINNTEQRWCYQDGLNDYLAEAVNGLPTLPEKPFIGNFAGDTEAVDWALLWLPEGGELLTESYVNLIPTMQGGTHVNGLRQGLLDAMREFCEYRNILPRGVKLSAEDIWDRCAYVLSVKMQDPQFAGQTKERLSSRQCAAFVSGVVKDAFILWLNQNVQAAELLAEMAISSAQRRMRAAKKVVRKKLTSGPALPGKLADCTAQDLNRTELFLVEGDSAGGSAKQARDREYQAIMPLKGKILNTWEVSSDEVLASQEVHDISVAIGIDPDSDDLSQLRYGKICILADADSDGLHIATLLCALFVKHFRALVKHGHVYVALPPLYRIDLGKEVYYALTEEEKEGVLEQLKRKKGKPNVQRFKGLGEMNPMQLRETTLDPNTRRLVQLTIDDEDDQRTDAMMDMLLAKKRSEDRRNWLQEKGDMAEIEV
Method: E. coli Topo IV relaxation assays were set up in the same way as supercoiling assays with some modifications. The substrate was negatively supercoiled DNA, E. coli Topo IV relaxation buffer (50 mM K-HEPES pH 7.6, 100 mM potassium glutamate, 10 mM magnesium acetate, 10 mM DTT, 1 mM ATP and 0.05 mg ml^−1 BSA) and reactions were incubated for 1 h. Reactions were stopped in the same way as supercoiling assays.
as §3
Supplementary Figure 11. Activity of albicidin and Albi-1/2/3 on E. coli topoisomerase IV. a. Plasmid relaxation activity of E. coli topo IV in the presence of albicidin, Albi-1, Albi-2 and Albi-3. First lane: negatively supercoiled pBR322; second lane: innate relaxation activity of E. coli topo IV (12.5 nM); third lane: effect of 20 µM CFX; subsequent lanes: effect of increasing compound concentration (0.1, 1, 10, 100 […]
higher concentration. b. Cleavage activity of E. coli topo IV in the presence of albicidin, Albi-1, Albi-2 and Albi-3. First lane: negatively supercoiled pBR322; second lane: innate cleavage activity of E. coli topo IV (15 nM); third lane: effect of 20 µM CFX; subsequent lanes: effect of increasing compound concentration (0.1, 1, 10, 100 µM). […]
concentration. All experiments were carried out in triplicates and representative gels […]
(1 picture or pasted object on this page, not shown here)

## CC(C)Oc1c(NC(=O)c2ccc(NC(=O)[C@H](Cc3c[nH]nn3)NC(=O)c3ccc(NC(=O)c4ccc(C#N)cc4)cn3)cn2)ccc(C(=O)Nc2ccc(C(=O)O)cc2)c1O [Albi-1]
E. coli gyrase GyrA^V70A
  % maximal cleavage: 90±2%
E. coli gyrase GyrA^V70A; mean ± s.d. of triplicate
  EC50: 16 ± 1.3 nM
E. coli gyrase GyrA^S83L
  % maximal cleavage: 80±14%
  EC50: 10 ± 1.5 nM
[1]
  % maximal cleavage: 83±3%
  EC50: 412 ± 88 nM
[1]; GyrB^K447W vs WT gyrase
  increase in CC50: more than 50 fold
[2]
  % maximal cleavage: 68±3%
  EC50: 15 ± 1.5 nM
E. coli gyrase GyrA^A67Q
  % maximal cleavage: 96±8%
  EC50: 181 ± 67 nM
E. coli gyrase GyrA^D72N
  resistance of the variant judged by the CC50: did not show increased resistance
E. coli Topo IV
  concentration required for full inhibition of Topo IV relaxation activity: 10 µM

## COc1c(NC(=O)c2ccc(NC(=O)c3ccc(NC(=O)[C@H](Cc4c[nH]nn4)NC(=O)c4ccc(NC(=O)c5ccc6cc(O)ccc6c5)cc4)cn3)c(OCCN)c2O)ccc(C(=O)O)c1O [Albi-2]
E. coli gyrase GyrA^V70A
  % maximal cleavage: 58±2%
E. coli gyrase GyrA^V70A; mean ± s.d. of triplicate
  EC50: 189 ± 49 nM
E. coli gyrase GyrA^S83L
  % maximal cleavage: 72±7%
  EC50: 208 ± 34 nM
[1]
  % maximal cleavage: 59±6%
  EC50: 251 ± 40 nM
[2]
  % maximal cleavage: 59±17%
  EC50: 160 ± 15 nM
E. coli Topo IV
  concentration required for full inhibition of Topo IV relaxation activity: 100 µM

## COc1c(NC(=O)c2ccc(NC(=O)c3ccc(NC(=O)[C@H](Cc4c[nH]nn4)NC(=O)c4ccc(NC(=O)c5ccc6nc(C)ccc6c5)cc4)cn3)c(OC)c2O)ccc(C(=O)O)c1O [Albi-3]
E. coli gyrase GyrA^V70A
  % maximal cleavage: 63±2%
E. coli gyrase GyrA^V70A; mean ± s.d. of triplicate
  EC50: 36 ± 8.6 nM
E. coli gyrase GyrA^S83L
  % maximal cleavage: 85±7%
  EC50: 16 ± 4 nM
[1]
  % maximal cleavage: 69±2% and 69%
E. coli gyrase GyrA^A67Q
  % maximal cleavage: 78±6%
  EC50: 328 ± 19 nM
E. coli Topo IV
  concentration required for full inhibition of Topo IV relaxation activity: 10 µM

## COc1c(NC(=O)c2ccc(NC(=O)c3ccc(NC(=O)[C@H](CC#N)NC(=O)c4ccc(NC(=O)/C(C)=C/c5ccc(O)cc5)cc4)cc3)c(OC)c2O)ccc(C(=O)O)c1O [Albicidin]
E. coli gyrase GyrA^V70A; 1 h
  increase in CC50: > 25 fold
E. coli gyrase GyrA^V70A
  % maximal cleavage: 80±2%
E. coli gyrase GyrA^V70A; cell prints its own unit
  EC50: 1240 nM
E. coli gyrase GyrA^V70A; albicidin 0.025 µM
  % cleaved DNA Average: 3.14%
E. coli gyrase GyrA^V70A; albicidin 0.05 µM
  % cleaved DNA Average: 4.791%
E. coli gyrase GyrA^V70A; albicidin 0.1 µM
  % cleaved DNA Average: 4.574%
E. coli gyrase GyrA^V70A; albicidin 0.25 µM
  % cleaved DNA Average: 12.5575%
E. coli gyrase GyrA^V70A; albicidin 0.5 µM
  % cleaved DNA Average: 14.0393%
E. coli gyrase GyrA^V70A; albicidin 1 µM
  % cleaved DNA Average: 46.9741%
E. coli gyrase GyrA^V70A; albicidin 5 µM
  % cleaved DNA Average: 65.2533%
E. coli gyrase GyrA^V70A; albicidin 10 µM
  % cleaved DNA Average: 79.6585%
E. coli gyrase GyrA^V70A; albicidin 50 µM
  % cleaved DNA Average: 77.0866%
E. coli gyrase GyrA^S83L; 1 h
  increase in CC50: 3 fold
E. coli gyrase GyrA^S83L
  % maximal cleavage: 68±5%
  EC50: 129 ± 43 nM
E. coli gyrase GyrA^S83L; albicidin 0.0025 µM
  % cleaved DNA Average: 2.652%
E. coli gyrase GyrA^S83L; albicidin 0.005 µM
  % cleaved DNA Average: 2.693%
E. coli gyrase GyrA^S83L; albicidin 0.01 µM
  % cleaved DNA Average: 2.768%
E. coli gyrase GyrA^S83L; albicidin 0.025 µM
  % cleaved DNA Average: 5.278%
E. coli gyrase GyrA^S83L; albicidin 0.05 µM
  % cleaved DNA Average: 12.476%
E. coli gyrase GyrA^S83L; albicidin 0.1 µM
  % cleaved DNA Average: 26.0782%
E. coli gyrase GyrA^S83L; albicidin 0.5 µM
  % cleaved DNA Average: 63.6873%
E. coli gyrase GyrA^S83L; albicidin 1 µM
  % cleaved DNA Average: 64.6552%
E. coli gyrase GyrA^S83L; albicidin 5 µM
  % cleaved DNA Average: 67.9433%
[1]
  % maximal cleavage: 27±2%
  EC50: 452 ± 108 nM
[1]; GyrB^K447W vs WT gyrase
  decrease of the maximal cleavage: 3 fold
  increase in CC50: 10 fold
[2]
  % maximal cleavage: 72±3%
  EC50: 50 ± 11 nM
[2]; albicidin 0.0005 µM
  % cleaved DNA Average: 4.819%
[2]; albicidin 0.001 µM
  % cleaved DNA Average: 6.609%
[2]; albicidin 0.0025 µM
  % cleaved DNA Average: 6.667%
[2]; albicidin 0.005 µM
  % cleaved DNA Average: 6.183%
[2]; albicidin 0.01 µM
  % cleaved DNA Average: 19.8754%
[2]; albicidin 0.025 µM
  % cleaved DNA Average: 25.7528%
[2]; albicidin 0.05 µM
  % cleaved DNA Average: 41.0477%
[2]; albicidin 0.1 µM
  % cleaved DNA Average: 46.9644%
[2]; albicidin 0.5 µM
  % cleaved DNA Average: 60.6731%
[2]; albicidin 1 µM
  % cleaved DNA Average: 72.349%
E. coli gyrase GyrA^A67Q; 1 h
  increase in CC50: more than 10 fold
E. coli gyrase GyrA^A67Q
  % maximal cleavage: 83±1%
  EC50: 610 ± 124 nM
E. coli gyrase GyrA^A67Q; albicidin 0.01 µM
  % cleaved DNA Average: 3.538%
E. coli gyrase GyrA^A67Q; albicidin 0.025 µM
  % cleaved DNA Average: 4.787%
E. coli gyrase GyrA^A67Q; albicidin 0.05 µM
  % cleaved DNA Average: 6.475%
E. coli gyrase GyrA^A67Q; albicidin 0.1 µM
  % cleaved DNA Average: 6.201%
E. coli gyrase GyrA^A67Q; albicidin 0.25 µM
  % cleaved DNA Average: 17.9877%
E. coli gyrase GyrA^A67Q; albicidin 0.5 µM
  % cleaved DNA Average: 34.7807%
E. coli gyrase GyrA^A67Q; albicidin 1 µM
  % cleaved DNA Average: 60.5747%
E. coli gyrase GyrA^A67Q; albicidin 5 µM
  % cleaved DNA Average: 76.5607%
E. coli gyrase GyrA^A67Q; albicidin 10 µM
  % cleaved DNA Average: 82.9213%
E. coli gyrase GyrA^A67Q; albicidin 25 µM
  % cleaved DNA Average: 77.2008%
E. coli gyrase GyrA^A67Q; albicidin 50 µM
  % cleaved DNA Average: 74.453%
E. coli gyrase GyrA^D72N
  resistance of the variant judged by the CC50: did not show increased resistance
E. coli Topo IV
  concentration required for full inhibition of Topo IV relaxation activity: 100 µM
